Patent publication US10227345B2, “Compounds and methods for inhibiting fascin” (Cornell University, priority 2014, dated 2019)

Target: T1, human fascin 1 (Homo sapiens, UniProt Q16658)
T1 construct: GST (N, cleaved yes); made in house; host or cells: Escherichia coli BL21/DE3 (pGEX4T-fascin 1 plasmid)
Assay: Fascin inhibition (actin bundling) assay, image-based
Assay type: biochemical
Conditions: in the presence of 50 μm of the compound relative to bundle activity when the compound was not present; read-out: Inhibition (percentage reduction of bundle activity)
Protocol: Recombinant human fascin 1 was expressed as a GST fusion protein in BL21 Escherichia coli. One liter of 2YT medium with ampicillin was inoculated overnight with 3 mL of BL21/DE3 culture transformed with pGEX4T-fascin 1 plasmid and grown at 37° C. until attenuance at 600 nm (D600) reached about 0.8. The culture was then transferred to 18° C. and induced by the addition of 0.1 mM isopropyl β-d-thiogalactoside (IPTG) for 12 h. Bacteria were harvested by centrifugation at 5,000 r.p.m. for 10 min. The pellets were suspended in 30 mL of PBS supplemented with 0.2 mM PMSF, 1 mM DTT, 1% (v/v) Triton X-100 and 1 mM EDTA. After sonication, the suspension was centrifuged at 15,000 r.p.m. for 30 min to remove the cell debris. The supernatant was then incubated for 2 h with 4 mL of glutathione beads (Sigma) at 4° C. After extensive washing with PBS, the beads were resuspended in 10 mL of thrombin cleavage buffer (20 mM Tris-HCl pH 8.0, 150 mM NaCl, 2 mM CaCl2, 1 mM DTT). Fascin was released from the beads by incubation overnight with 40-100 U of thrombin at 4° C. After centrifugation, 0.2 mM PMSF was added to the supernatant to inactivate the remnant thrombin activity. The fascin protein was further concentrated with a Centricon® (Boca Raton, Fla.) filter to about 50 mg/mL.
Representative compounds described herein were tested for fascin inhibition activity. Purified fascin protein (15 μL of 0.5 μM) in buffer (100 mM KCl, 20 mM Tris/HCl, pH 7.5, 2 mM MgCl2) was added into each well of a clear 384-well flat-bottom plate (Corning) using Thermo Multidrop Combi (Fisher). Compound solutions (5 mM stock, 180 nL) were pin transferred from stock 384-well plates into the 384-well assay plates and incubated for 30 min. Then 15 μL of 0.5 μM polymerized actin (in 100 mM KCl, 20 mM Tris/HCl, pH 7.5, 2 mM MgCl2, 1 mM DTT, 1 mM ATP) (Cytoskeleton Inc.) was added, resulting in 30 μM final concentration for chemical compounds. […] Mixed solution (25 μL) was then transferred to one well in a black 384-well plate coated with poly-D-lysine, and stained actin bundles or F-actin would stick onto the poly-D-lysine plates. After the plates were thoroughly washed with 1×PBS for 3 times, the plate was imaged using an ImageXpress Micro High Content Screening System (Molecular devices). The images were processed and analyzed using MetaMorph software. The raw image data for each well was background-corrected by subtraction of the median intensities across all wells on the plate. The background-corrected data was used to compute the bundle length for each well. The negative control wells were employed for quality control: multiple DMSO-only control wells (16 wells/plate) were present on each assay plate.

SMILES | inhibition at 50 µM [%]
O=C(Nc1nn(Cc2ccc(C(F)(F)F)cc2)c2ccccc12)c1sccc1Cl [Compound 41, 3-chloro-N-(1-(4-(trifluoromethyl)benzyl)-1H-indazol-3-yl)thiophene-2-carboxamide] | < 10
O=C(Nc1nn(Cc2ccc(C(F)(F)F)cc2)c2ccccc12)c1cccc(Cl)c1 [Compound 7, 3-chloro-N-(1-(4-(trifluoromethyl)benzyl)-1H-indazol-3-yl)benzamide] | 10
Cc1ncsc1C(=O)Nc1nn(Cc2ccc(F)cc2)c2ccccc12 [Compound 75, N-(1-(4-fluorobenzyl)-1H-indazol-3-yl)-4-methylthiazole-5-carboxamide] | < 10
O=C(Nc1nn(Cc2ccc(C(F)(F)F)cc2)c2ccccc12)c1ccc(F)c(F)c1 [Compound 19, 3,4-difluoro-N-(1-(4-(trifluoromethyl)benzyl)-1H-indazol-3-yl)benzamide] | < 10
O=C(Nc1nn(Cc2ccc(C(F)(F)F)cc2)c2ccccc12)c1cnccn1 [Compound 53, N-(1-(4-(trifluoromethyl)benzyl)-1H-indazol-3-yl)pyrazine-2-carboxamide] | < 10
Cc1nocc1C(=O)Nc1nn(Cc2ccc(F)cc2)c2ccccc12 [Compound 72, N-(1-(4-fluorobenzyl)-1H-indazol-3-yl)-3-methylisoxazole-4-carboxamide] | < 10
O=C(Nc1nn(Cc2ccc(C(F)(F)F)cc2)c2ccccc12)c1ccccc1OC(F)(F)F [Compound 52, 2-(trifluoromethoxy)-N-(1-(4-(trifluoromethyl)benzyl)-1H-indazol-3-yl)benzamide] | < 10
O=C(Nc1nn(Cc2ccccc2C(F)(F)F)c2ccccc12)c1ccoc1 [Compound 57, N-(1-(2-(trifluoromethyl)benzyl)-1H-indazol-3-yl)furan-3-carboxamide] | < 10
O=C(Nc1nn(Cc2ccc(F)cc2)c2ccccc12)c1ccoc1 [Compound 71, N-(1-(4-fluorobenzyl)-1H-indazol-3-yl)furan-3-carboxamide] | < 10
O=C(Nc1nn(Cc2ccc(C(F)(F)F)cc2)c2ccccc12)c1ccccc1Cl [Compound 5, 2-chloro-N-(1-(4-(trifluoromethyl)benzyl)-1H-indazol-3-yl)benzamide] | 50
O=C(Nc1nn(Cc2ccc(C(F)(F)F)cc2)c2ccccc12)c1ccccc1OC(F)F [Compound 47, 2-(difluoromethoxy)-N-(1-(4-(trifluoromethyl)benzyl)-1H-indazol-3-yl)benzamide] | < 10
Cc1ccc(Cn2nc(NC(=O)c3ccoc3)c3ccccc32)cc1 [Compound 78, N-(1-(4-methylbenzyl)-1H-indazol-3-yl)furan-3-carboxamide] | < 10
FC(F)(F)c1ccc(CNc2nn(Cc3ccc(C(F)(F)F)cc3)c3ccccc23)cc1 [Compound 22, N,1-bis(4-(trifluoromethyl)benzyl)-1H-indazol-3-amine] | < 10
O=C(Nc1nn(Cc2ccc(C(F)(F)F)cc2)c2ccccc12)c1cccc(F)c1 [Compound 14, 3-fluoro-N-(1-(4-(trifluoromethyl)benzyl)-1H-indazol-3-yl)benzamide] | < 10
O=C(Nc1nn(Cc2ccc(C(F)(F)F)cc2)c2ccccc12)c1ccsc1Cl [Compound 38, 2-chloro-N-(1-(4-(trifluoromethyl)benzyl)-1H-indazol-3-yl)thiophene-3-carboxamide] | < 10
O=C(Nc1nn(Cc2ccc(Cl)cc2)c2ccccc12)c1cccnn1 [Compound 69, N-(1-(4-chlorobenzyl)-1H-indazol-3-yl)pyridazine-3-carboxamide] | 50
O=C(Nc1nn(Cc2ccc(C(F)(F)F)cc2)c2ccccc12)c1cccs1 [Compound 9, N-(1-(4-(trifluoromethyl)benzyl)-1H-indazol-3-yl)thiophene-2-carboxamide] | 60
N#Cc1ccc(Cn2nc(NC(=O)c3ccno3)c3ccccc32)cc1 [Compound 87, N-(1-(4-cyanobenzyl)-1H-indazol-3-yl)isoxazole-5-carboxamide] | < 10
Nc1nn(Cc2ccc(C(F)(F)F)nc2)c2ccccc12 [Compound 91, 1-((6-(trifluoromethyl)pyridine-3-yl)methyl)-1H-indazol-3-amine] | < 10

Second part, the compound after the results:

inhibition at 50 µM [%] | SMILES
90 | Cc1ncsc1C(=O)Nc1nn(Cc2ccc(C(F)(F)F)cc2)c2cncc(Cl)c12 [Compound 138, N-(4-chloro-1-(4-(trifluoromethyl)benzyl)-1H-pyrazolo[3,4-c]pyridin-3-yl)-4-methylthiazole-5-carboxamide]
10 | Cc1occc1C(=O)Nc1nn(Cc2ccc(C(F)(F)F)cc2)c2cncc(Cl)c12 [Compound 141, N-(4-chloro-1-(4-(trifluoromethyl)benzyl)-1H-pyrazolo[3,4-c]pyridin-3-yl)-2-methylfuran-3-carboxamide]
< 10 | O=C(Nc1nn(Cc2ccc(C(F)(F)F)cc2)c2ccc(C(F)(F)F)cc12)c1ccoc1 [Compound 123, N-(5-(trifluoromethyl)-1-(4-(trifluoromethyl)benzyl)-1H-indazol-3-yl)furan-3-carboxamide]
< 10 | Nc1nn(Cc2ccc(C(F)(F)F)cc2)c2c(C(F)(F)F)cccc12 [Compound 111, 7-(trifluoromethyl)-1-(4-(trifluoromethyl)benzyl)-1H-indazol-3-amine]
10 | CCCC(=O)Nc1nn(Cc2ccc(C(F)(F)F)cc2)c2cncc(Cl)c12 [Compound 153, N-(4-chloro-1-(4-(trifluoromethyl)benzyl)-1H-pyrazolo[3,4-c]pyridin-3-yl)butyramide]
10 | O=C(Nc1nn(Cc2ccc(C(F)(F)F)cc2)c2cncc(Cl)c12)c1ccoc1 [Compound 140, N-(4-chloro-1-(4-(trifluoromethyl)benzyl)-1H-pyrazolo[3,4-c]pyridin-3-yl)furan-3-carboxamide]
< 10 | Cc1ccc2c(NC(=O)c3cccnn3)nn(Cc3ccc(C(F)(F)F)nc3)c2n1 [Compound 136, N-(6-methyl-1-((6-(trifluoromethyl)pyridin-3-yl)methyl)-1H-pyrazolo[3,4-b]pyridin-3-yl)pyridazine-3-carboxamide]
10 | CNc1nn(Cc2ccc(C(F)(F)F)cc2)c2cncc(Cl)c12 [Compound 149]
< 10 | Cc1ccc2c(NC(=O)c3ccoc3C)nn(Cc3ccc(C(F)(F)F)cc3)c2n1 [Compound 134, 2-methyl-N-(6-methyl-1-(4-(trifluoromethyl)benzyl)-1H-pyrazolo[3,4-b]pyridin-3-yl)furan-3-carboxamide]
< 10 | Cc1nocc1C(=O)Nc1nn(Cc2ccc(C(F)(F)F)cc2)c2c(C(F)(F)F)cccc12 [Compound 113, 3-methyl-N-(7-(trifluoromethyl)-1-(4-(trifluoromethyl)benzyl)-1H-indazol-3-yl)isoxazole-4-carboxamide]
< 10 | Cc1occc1C(=O)Nc1nn(Cc2ccc(C(F)(F)F)cc2)c2cc(C(F)(F)F)ccc12 [Compound 109]
< 10 | Cc1nocc1C(=O)Nc1nn(Cc2ccc(C(F)(F)F)nc2)c2ccc(C#N)cc12 [Compound 99, N-(5-cyano-1-((6-(trifluoromethyl)pyridin-3-yl)methyl)-1H-indazol-3-yl)-3-methylisoxazole-4-carboxamide]
